Measurements as given in PMC8212425 (Translational Vision Science & Technology, 2021).
Like-named read-outs stand apart in the source and are kept apart here.

Columns and labels:
[1] = assay type: in vivo, New Zealand White rabbits; details: for Plasma concentration / AUC(0-t): 1 mg/eye; for Plasma concentration: below LOQ; for Cmax / Tmax: New Zealand White, rabbit, 1 mg; for AUC(0-t): NZW rabbits
[2] = assay type: in vivo, Dutch Belted rabbits; details: for Cmax / Tmax: 4 mg; for AUC(0-t): DB rabbits, 91 days
[3] = assay type: in vivo, Dutch Belted rabbits; details: for Tmax / Cmax / half-life: Dutch Belted, rabbit, sc; for AUC(0-t): DB rabbits
[4] = assay type: in vivo, rabbits; details: rabbit, RCS, sc, 1.05 mg/eye
[5] = vitreous humor, topical or ocular
[6] = Dutch Belted, rabbit, RPE-choroid-sclera complex (RCS), sc
[7] = Dutch Belted, rabbit, vitreous humor, sc
[8] = SC, 4 mg/eye, throughout 91-day study, not detected/quantifiable, LOQ
[9] = RPE-choroid-sclera complex (RCS), 0.03 mg
[10] = RPE-choroid-sclera complex (RCS), 0.1 mg
[11] = SC, 0.03 and 0.10 mg/eye, 10-week study
[12] = SC, 0.03 and 0.1 mg/eye, any timepoint, not quantifiable, LOQ

- Plasma concentration ([1]; IVT, all timepoints): < 0.150 ng/mL
- Cmax ([1]; posterior eye cup (PEC), sc): 799000 ng/g
- Tmax ([1]; posterior eye cup (PEC), sc): 6 h
- Cmax ([1]; posterior eye cup (PEC), topical or ocular): 124000 ng/g
- Cmax ([1]; vitreous humor, sc): 3670 ng/g
- Tmax ([1]; vitreous humor, sc): 168 h
- Cmax [1, 5]: 1.28e+06 ng/g
- Tmax [1, 5]: 0.08 h
- AUC(0-t) ([1]; PEC (posterior eye cup), SC injection): 5208 µg·days/g
- AUC(0-t) ([1]; PEC, IVT injection): 471 µg·days/g
- Plasma concentration ([1]; SC, all timepoints except 6 hours): < 0.150 ng/mL
- AUC(0-t) ([1]; vitreous humor, IVT injection): 6208 µg·days/g
- AUC(0-t) ([1]; vitreous humor, SC injection): 19 µg·days/g
- Cmax [2, 6]: 2.2e+07 ng/g
- Tmax [2, 6]: 96 h
- half-life ([2]; Dutch Belted, rabbit, RPE-choroid-sclera complex (RCS), sc, 4 mg/eye): 143 days
- Cmax ([2]; Dutch Belted, rabbit, retina, sc): 325000 ng/g
- concentration at 91 day ([2]; Dutch Belted, rabbit, retina, sc, 4 mg/eye): 305000 ng/g
- Cmax [2, 7]: 858 ng/mL
- Tmax [2, 7]: 96 h
- AUC(0-t) ([2]; RCS (RPE-choroid-sclera, dose depot), SC, 4 mg/eye): 1,260,000 µg·d/g
- Aqueous humor concentration [2, 8]: < 1 ng/mL
- Plasma concentration [2, 8]: < 0.15 ng/mL
- Vitreous humor level lower than that of RCS and retina ([2]; SC, 4 mg/eye, density of vitreous humor assumed 1): 3 to 4 log orders
- AUC(0-t) ([2]; vitreous humor, SC, 4 mg/eye): 31.1 µg·d/g or µg*d/mL
- Tmax ([3]; RPE-choroid-sclera complex (RCS)): 24 h
- Cmax [3, 9]: 37200 ng/g
- Tmax [3, 9]: 24 h
- half-life [3, 9]: 264 h
- Cmax [3, 10]: 232000 ng/g
- Tmax [3, 10]: 24 h
- half-life [3, 10]: 384 h
- Cmax ([3]; retina, 0.03 mg): 4480 ng/g
- Tmax ([3]; retina, 0.03 mg): 24 h
- Cmax ([3]; retina, 0.1 mg): 6260 ng/g
- Tmax ([3]; retina, 0.1 mg): 24 h
- Cmax ([3]; vitreous humor, 0.03 mg): 4.01 ng/mL
- Tmax ([3]; vitreous humor, 0.03 mg): 24 h
- Cmax ([3]; vitreous humor, 0.1 mg): 4.58 ng/mL
- Tmax ([3]; vitreous humor, 0.1 mg): 24 h
- AUC(0-t) ([3]; RCS, SC, 0.03 mg/eye): 338 µg·days/g
- AUC(0-t) ([3]; RCS, SC, 0.1 mg/eye): 2320 µg·days/g
- Mean AUC0-∞ after 0.10 mg dose versus 0.03 mg dose ([3]; RCS, SC, dose ratio 3.33): ~7 fold
- Mean Cmax after 0.10 mg dose versus 0.03 mg dose ([3]; RCS, SC, dose ratio 3.33): approximately 6 fold
- RCS (dose depot) level higher than retina [3, 11]: 1 to 2 orders of magnitude
- Retina level higher than vitreous humor [3, 11]: 3 to 4 orders of magnitude
- Aqueous humor concentration [3, 12]: < 1 ng/mL
- Plasma concentration [3, 12]: < 0.15 ng/mL
- AUC(0-t) ([3]; retina, SC, 0.03 mg/eye): 17.3 µg·days/g
- AUC(0-t) ([3]; retina, SC, 0.1 mg/eye): 28.1 µg·days/g
- concentration at 182 day [4]: 199000 ng/g
Compound: CNC(=O)c1ccccc1Sc1ccc2c(/C=C/c3ccccn3)n[nH]c2c1 [Axitinib]
